Data taken from patent publication US20110294728A1, “Antiviral Polypeptides” (priority 2008, published 2011).
Where a SMILES comes first, the peptide text is derived from it. Bridges are numbered along the chain shown (N, C = ends). Where no end group is shown, it is not given here.

Key:
[1] = molecular target: T1, HIV-1 integrase (Human immunodeficiency virus type 1 group M subtype B, UniProt P04585); assay: biochemical
T1 construct: Integrase is a 32 kDA viral protein that is biologically active under a multimeric form
Experimental: The simultaneous measurement of integrase-DNA interaction and subsequent 3′-processing activity by steady-state fluorescence anisotropy was performed as described in Guiot et al. (2006). […] After the initial DNA-binding step (performed at 25° C.), the 3′-processing activity was measured at 37° C. by fixed-time experiments: The reaction was stopped at varying times by adding SDS (0.25% final) which disrupts all IN-DNA complexes in the sample. The IN-mediated cleavage of the terminal GT dinucleotide (labeled by fluorescein on the 3′-end) leads to a significant decrease of r as compared to the r value corresponding to the fluorescein-labeled unprocessed DNA substrate. The fraction of released dinucleotide is calculated by using Eq. (1): […]

[2] = test system: HIV-1-LAI strain; settings: for IC50, block of viral proliferation (in words): peptide associated with Pep-1
Experimental: The anti-HIV activities of the peptides were assayed according to the methods described in Roisin et al. (2004). Phytohemagglutinin-P(PHA-P)-activated peripheral blood mononuclear cells (PBMC) treated by increasing concentrations of peptide (from 100 to 0.1 nM), one hour later, were infected with hundred 50% tissue culture infectious doses (TCID50) per 100,000 cells of the HIV-1-LAI strain (Barre-Sinoussi et al., 1983). This virus was amplified in vitro on PHA-P-activated PBMC. Viral stock was titrated using PHA-P-activated PBMC, and 50% TCID50 were calculated using Kärber's formula (Kärber, 1931). Samples were maintained throughout the culture, and cell supernatants were collected at day 7 post-infection and stored at −20° C. Viral replication was measured by quantifying reverse transcriptase (RT) activity in cell culture supernatants. In parallel, cytotoxicity of the compounds was evaluated in uninfected PHA-P-activated PBMC by colorimetric 3-(4-5 dimethylthiazol-2-yl)2,5diphenyl tetrazolium bromite (MTT) assay on day 7 (as described in Mossmann, 1983). Experiments were performed in triplicate and repeated with another blood donor. Data analyses were performed using SofiMax® Pro 4.6 microcomputer software: percent of inhibition of RT activity or of cell viability were plotted vs concentration and fitted with quadratic curves; 50% effective doses (ED50) and cytotoxic doses (CD50) were calculated.
In order to avoid any limitation due to the poor ability of peptides to cross cellular membranes, they were associated to the peptide-based nanoparticle delivery system Pep-1 (SEQ ID NO: 29), at a 1/10 molar ratio.

[3] = molecular target: T1, HIV-1 integrase; assay: biochemical; type: binding
Experimental: Fluorescein-labeled peptides (40 nM) were mixed with varying concentrations of integrase in 20 mM Tris pH 7.2, 50 mM NaCl, 10 mM MgCl2, and the r values were recorded.
Effect of the different peptides on the integrase (IN) activity, DNA binding and IN/DNA dissociation were evaluated as described in Example III.1 above, using fluorescence polarization and anisotropy measurements. Binding constant of the peptide for IN was determined by steady state fluorescence and anisotropy.

[4] = molecular target: T2, HIV-1 RT (Human immunodeficiency virus type 1 group M subtype B, UniProt P03366); assay: biochemical
T2 construct: The heterodimeric p66/p51 RT was eluted with an imidazole gradient; p66 and p51 derived from p66 by proteolytic cleavage of the C-terminal RNAse H domain; made in house; host or cells: E. coli (M15 for the His-tagged subunits)
Experimental: RNA-dependent-DNA RT-polymerase activity was measured in a standard reaction assay using poly(rA)-(dT)15 as template/primer as described in Restle et al. (1990). Ten microliters of reverse transcriptase (RT) at 20 nM was incubated at 37° C. for 30 min with 20 μL of reaction buffer (50 mM Tris, pH 8.0, 80 mM KCl, 6 mM MgCl2, 5 mM DTT, 0.15 μM poly(rA-dT), 15 μM dTTP, 0.3 μCi 3H-dTTP). For peptide evaluation, HIV-1 RT was incubated with increasing concentrations of peptide inhibitors for […], and polymerase reaction was initiated by adding reaction buffer. Reactions were stopped by precipitation of nucleic acids with 5 ml of 20% trichloroacetic acid (TCA) solution for 2 h on ice, then filtered using a multiwell-sample collector (Millipore), and washed with 5% TCA solution. Filters were dried at 55° C. for 30 min and radionucleotide incorporation was determined by liquid scintillation spectrometry.
A series of peptides have been derived from Pep-A sequence (SEQ ID NO: 28), which is derived from HIV-1 reverse transcriptase. First, P1 peptide (SEQ ID NO: 1) was obtained by removing the N-terminal arginine of Pep-A. Then, additional peptides were generated by performing an alanine scan on P1. P1-derived peptides were evaluated using a standard polymerase RT assay. Reported data correspond to the mean of three separate experiments.

Row | Compound | Ki [4] [µM] | other results
1 | CC[C@H](C)[C@@H]1NC(=O)[C@H](Cc2c[nH]c3ccccc23)NC(=O)[C@H](CCC(=O)O)NC(=O)[C@H]([C@@H](C)O)NC(=O)[C@H](CC(C)C)NC(=O)[C@H](Cc2c[nH]c3ccccc23)NC(=O)[C@H](CCCCN)NC(=O)[C@H]([C@@H](C)O)NC(=O)CNC(=O)[C@@H](N)CSSC[C@@H](C(=O)O)NC(=O)[C@H](CCC(=O)O)NC(=O)[C@H](C)NC(=O)[C@H](CCC(=O)O)NC(=O)[C@H](C)NC(=O)[C@H]([C@@H](C)O)NC(=O)[C@H](CC(C)C)NC(=O)[C@@H]2CCCN2C1=O [PAW-C1] (H-CGTKWLTEWIPLTAEAEC-OH; disulfide 1-18) | 0.2 | Ki [1]: 21 µM; EC50 ([2]; read-out: EC50 HIV-1 lai, Table 10): 0.0012 µM; Kd [3]: 0.29 µM
2 | CC[C@H](C)[C@H](NC(=O)[C@@H](NC(=O)[C@H](CCC(=O)O)NC(=O)[C@@H](NC(=O)[C@H](CC(C)C)NC(=O)[C@H](C)NC(=O)[C@H](CCCCN)NC(=O)[C@@H](NC(=O)CNC(=O)[C@@H](N)CCCNC(=N)N)[C@@H](C)O)[C@@H](C)O)C(C)C)C(=O)N1CCC[C@H]1C(=O)N[C@@H](CC(C)C)C(=O)N[C@H](C(=O)N[C@@H](CCC(=O)O)C(=O)N[C@@H](CCC(=O)O)C(=O)N[C@@H](C)C(=O)N[C@@H](CCC(=O)O)C(=O)O)[C@@H](C)O [Pep-A, reference compound] | 35 | antiviral activity (in words) ([2]; associated to Pep-1): no antiviral activity
3 | CC[C@H](C)[C@H](NC(=O)[C@@H](NC(=O)[C@H](CCC(=O)O)NC(=O)[C@@H](NC(=O)[C@H](CC(C)C)NC(=O)[C@H](C)NC(=O)[C@H](CCCCN)NC(=O)[C@@H](NC(=O)CN)[C@@H](C)O)[C@@H](C)O)C(C)C)C(=O)N1CCC[C@H]1C(=O)N[C@@H](CC(C)C)C(=O)N[C@H](C(=O)N[C@@H](CCC(=O)O)C(=O)N[C@@H](CCC(=O)O)C(=O)N[C@@H](C)C(=O)N[C@@H](CCC(=O)O)C(=O)O)[C@@H](C)O [Peptide P1] | 7.5 | IC50, block of viral proliferation (in words) [2]: low μM range; increase in potency to inhibit RT polymerase over Pep-A ([4]; relative to Pep-A): 5 fold
4 | CC[C@H](C)[C@H](NC(=O)[C@@H](NC(=O)[C@H](CCC(=O)O)NC(=O)[C@@H](NC(=O)[C@H](CC(C)C)NC(=O)[C@H](C)NC(=O)[C@H](CCCCN)NC(=O)[C@@H](NC(=O)[C@H](C)N)[C@@H](C)O)[C@@H](C)O)C(C)C)C(=O)N1CCC[C@H]1C(=O)N[C@@H](CC(C)C)C(=O)N[C@H](C(=O)N[C@@H](CCC(=O)O)C(=O)N[C@@H](CCC(=O)O)C(=O)N[C@@H](C)C(=O)N[C@@H](CCC(=O)O)C(=O)O)[C@@H](C)O [Peptide P2] | 28 ± 11 | 
5 | CC[C@H](C)[C@H](NC(=O)[C@@H](NC(=O)[C@H](CCC(=O)O)NC(=O)[C@@H](NC(=O)[C@H](CC(C)C)NC(=O)[C@H](C)NC(=O)[C@H](CCCCN)NC(=O)[C@H](C)NC(=O)CN)[C@@H](C)O)C(C)C)C(=O)N1CCC[C@H]1C(=O)N[C@@H](CC(C)C)C(=O)N[C@H](C(=O)N[C@@H](CCC(=O)O)C(=O)N[C@@H](CCC(=O)O)C(=O)N[C@@H](C)C(=O)N[C@@H](CCC(=O)O)C(=O)O)[C@@H](C)O [Peptide P3] | 10.3 ± 2.1 | 
6 | CC[C@H](C)[C@H](NC(=O)[C@@H](NC(=O)[C@H](CCC(=O)O)NC(=O)[C@@H](NC(=O)[C@H](CC(C)C)NC(=O)[C@H](C)NC(=O)[C@H](C)NC(=O)[C@@H](NC(=O)CN)[C@@H](C)O)[C@@H](C)O)C(C)C)C(=O)N1CCC[C@H]1C(=O)N[C@@H](CC(C)C)C(=O)N[C@H](C(=O)N[C@@H](CCC(=O)O)C(=O)N[C@@H](CCC(=O)O)C(=O)N[C@@H](C)C(=O)N[C@@H](CCC(=O)O)C(=O)O)[C@@H](C)O [Peptide P4] | 15 ± 2.9 | 
7 | CC[C@H](C)[C@H](NC(=O)[C@@H](NC(=O)[C@H](CCC(=O)O)NC(=O)[C@@H](NC(=O)[C@H](CC(C)C)NC(=O)CNC(=O)[C@H](CCCCN)NC(=O)[C@@H](NC(=O)CN)[C@@H](C)O)[C@@H](C)O)C(C)C)C(=O)N1CCC[C@H]1C(=O)N[C@@H](CC(C)C)C(=O)N[C@H](C(=O)N[C@@H](CCC(=O)O)C(=O)N[C@@H](CCC(=O)O)C(=O)N[C@@H](C)C(=O)N[C@@H](CCC(=O)O)C(=O)O)[C@@H](C)O [Peptide P5] | 20 ± 3.7 | 
8 | CC[C@H](C)[C@H](NC(=O)[C@@H](NC(=O)[C@H](CCC(=O)O)NC(=O)[C@@H](NC(=O)[C@H](CC(C)C)NC(=O)[C@H](C)NC(=O)[C@H](CCCCN)NC(=O)[C@@H](NC(=O)CN)[C@@H](C)O)[C@@H](C)O)C(C)C)C(=O)N1CCC[C@H]1C(=O)N[C@@H](CC(C)C)C(=O)N[C@H](C(=O)N[C@@H](C)C(=O)N[C@@H](CCC(=O)O)C(=O)N[C@@H](C)C(=O)N[C@@H](CCC(=O)O)C(=O)O)[C@@H](C)O [Peptide P14] | 14 ± 3 | 
9 | CC[C@H](C)[C@H](NC(=O)[C@@H](NC(=O)[C@H](CCC(=O)O)NC(=O)[C@@H](NC(=O)[C@H](CC(C)C)NC(=O)[C@H](C)NC(=O)[C@H](CCCCN)NC(=O)[C@@H](NC(=O)CN)[C@@H](C)O)[C@@H](C)O)C(C)C)C(=O)N1CCC[C@H]1C(=O)N[C@@H](CC(C)C)C(=O)N[C@H](C(=O)N[C@@H](CCC(=O)O)C(=O)N[C@@H](C)C(=O)N[C@@H](C)C(=O)N[C@@H](CCC(=O)O)C(=O)O)[C@@H](C)O [Peptide P15] | 14 ± 2.2 | 
10 | CC[C@H](C)[C@H](NC(=O)[C@@H](NC(=O)[C@H](CCC(=O)O)NC(=O)[C@@H](NC(=O)[C@H](CC(C)C)NC(=O)[C@H](C)NC(=O)[C@H](CCCCN)NC(=O)[C@@H](NC(=O)CN)[C@@H](C)O)[C@@H](C)O)C(C)C)C(=O)N1CCC[C@H]1C(=O)N[C@@H](CC(C)C)C(=O)N[C@H](C(=O)O)[C@@H](C)O [Peptide P18] | 53 ± 12 | inhibition of RT polymerase activity (in words) [4]: does not inhibit RT polymerase activity
11 | GAKTETLVIPETELEA [Pscramble] | 61 ± 12 | 
12 | GTKAATEVIPLT [Peptide P19] | 49 ± 9 | 
13 | GTKAATEVIPLTEEAE [Peptide P6] | 5.7 | IC50, block of viral proliferation (in words) [2]: low μM range
14 | GTKALAEVIPLTEEAE [Peptide P7] | 13.5 ± 2.1 | 
15 | GTKALTEAIPLTEEAE [Peptide P9] | 15 ± 7.3 | 
16 | GTKALTEVAPLTEEAE [Peptide P10] | 7.3 | IC50, block of viral proliferation (in words) [2]: low μM range
17 | GTKALTEVIALTEEAE [Peptide P11] | 7 | IC50, block of viral proliferation (in words) [2]: low μM range
18 | GTKALTEVIPATEEAE [Peptide P12] | 22 ± 3 | 
19 | GTKALTEVIPLAEEAE [Peptide P13] | 10.2 ± 2.5 | 
20 | GTKAWTEVWPL [Peptide P17] | 35 ± 11 | reduction of efficiency (higher Ki) relative to PAW ([4]; relative to PAW): 50 fold
21 | GTKWATEWAPLTAEAE [Peptide P28] | 2 ± 0.6 | 
22 | KWLTEWIPLTAE [Peptide P29] | 1 ± 0.4 | 
